Data: BindingDB's records for doi:10.1002/cbic.201100332 (University of British Columbia, 2011)

Target: T1, Lysosomal acid glucosylceramidase (Homo sapiens, UniProt P04062)
T1 sequence (P04062 whole entry): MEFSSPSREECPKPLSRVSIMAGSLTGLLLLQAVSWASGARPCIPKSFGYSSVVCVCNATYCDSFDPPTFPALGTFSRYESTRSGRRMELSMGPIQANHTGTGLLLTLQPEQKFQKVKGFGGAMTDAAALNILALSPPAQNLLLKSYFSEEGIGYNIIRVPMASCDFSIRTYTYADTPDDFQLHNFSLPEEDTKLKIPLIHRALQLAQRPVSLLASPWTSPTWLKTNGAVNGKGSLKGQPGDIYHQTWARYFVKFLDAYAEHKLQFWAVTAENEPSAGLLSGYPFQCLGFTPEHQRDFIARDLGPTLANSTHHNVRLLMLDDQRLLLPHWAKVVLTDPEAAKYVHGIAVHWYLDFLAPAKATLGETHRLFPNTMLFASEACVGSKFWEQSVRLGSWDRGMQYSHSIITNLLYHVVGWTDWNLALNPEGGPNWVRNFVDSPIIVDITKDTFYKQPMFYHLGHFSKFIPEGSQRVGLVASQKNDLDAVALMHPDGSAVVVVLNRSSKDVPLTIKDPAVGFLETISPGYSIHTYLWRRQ
Test: Fluorescene-based Assay
Description: Fluorescene-based assay using beta-glucocerebrosidase.

| Ki (pH 5.5) | Ki (pH 7) | SMILES |
| --- | --- | --- |
| 0.1 µM | 0.11 µM | OCCCC1NCC(O)C(O)C1CO (stereo unspecified) [Isofagomine derivative, 10] |
| 0.6 µM | 1.4 µM | CCCC1(CCC)NCC(O)C(O)C1CO (stereo unspecified) [Isofagomine derivative, 8] |
| 0.61 µM | 0.21 µM | CCCC1NCC(O)C(O)C1CO (stereo unspecified) [Isofagomine derivative, 6] |
